Measured values taken from US12606543B2, “Indole derivatives as serotonergic agents useful for the treatment of disorders related thereto” (priority 2023, dated 2026).

What was measured:
Assay type in all cases: in vitro ADME
[1] = Liver microsomes stability, human
Method: (§1) The objective of this study was to estimate in vitro metabolic stability of exemplary compounds of Formula (I) or a pharmaceutically acceptable salt, solvate, and/or prodrug thereof in pooled human, male rat, and male mouse liver microsomes. The concentrations of compounds in reaction systems were evaluated by LC-MS/MS for estimating the stability in pooled human, male rat, and male mouse liver microsomes. The in vitro intrinsic clearances of test compounds were determined as well.
(§2) A master solution in the “Incubation Plate” containing phosphate buffer, ultra-pure H2O, MgCl2 solution and liver microsomes was made according to Table 33. The mixture was pre-warmed at 37° C. water bath for 5 minutes.
(§3) 40 μL of 10 mM nicotinamide adenine dinucleotide phosphate (NADPH) solution was added to each well. The final concentration of NADPH was 1 mM. The negative control samples were prepared by replacing NADPH with 40 μL of ultra-pure H2O. Samples were prepared in duplicate. Negative controls were prepared in singlet.
(§4) The reaction was started with the addition of 4 μL of 200 μM exemplary test compounds of the disclosure or control compounds to each master solution to get the final concentration of 2 μM. This study was performed in duplicate.
(§5) Aliquots of 50 μL were taken from the reaction solution at 0, 15, 30, 45, and 60 minutes. The reaction solutions were stopped by the addition of 4 volumes of cold methanol with IS (100 nM alprazolam, 200 nM imipramine, 200 nM labetalol, and 2 μM ketoprofen). Samples were centrifuged at 3,220 g for 40 minutes. Aliquot of 90 μL of the supernatant was mixed with 90 μL of ultra-pure H2O and then was used for LC-MS/MS analysis.
(§6) LC/MS analysis was performed for all samples from this study using a Shimadzu liquid chromatograph separation system equipped with degasser DGU-20A5R; solvent delivery unit LC-30AD; system controller SIL-30AC; column oven CTO-30A; CTC Analytics HTC PAL System. Mass spectrometric analysis was performed using a Triple Quad™ 5500 instrument.
(§7) All calculations were carried out using Microsoft Excel. Peak area ratios of test compound to internal standard (listed in the below table) were determined from extracted ion chromatograms.
(§8) All calculations were carried out using Microsoft Excel. Peak areas were determined from extracted ion chromatograms. The slope value, k, was determined by linear regression of the natural logarithm of the remaining percentage of the parent drug vs. incubation time curve.
(§9) The in vitro half-life (in vitro t1/2) was determined from the slope value:
(§10) Conversion of the in vitro t1/2 (min) into the in vitro intrinsic clearance (in vitro CLint, in μL/min/mg proteins) was done using the following equation (mean of duplicate determinations): […]
as §1, with “solvate” for “solvate,”, “rat” for “rat,”
(§11) A master solution in the “Incubation Plate” containing phosphate buffer, ultra-pure H2O, MgCl2 solution and liver microsomes was made according to Table 67. The mixture was pre-warmed at 37° C. water bath for 5 minutes.
(§12) 40 μL of 10 mM NADPH solution was added to each well. The final concentration of NADPH was 1 mM. The negative control samples were prepared by replacing NADPH with 40 μL of ultra-pure H2O. Samples were prepared in duplicate. Negative controls were prepared in singlet
Aliquots of 50 μL were taken from the reaction solution at 0, 15, 30, 45 and 60 minutes. The reaction solutions were stopped by the addition of 4 volumes of cold methanol with IS (100 nM alprazolam, 200 nM imipramine, 200 nM labetalol and 2 μM ketoprofen).

[2] = Liver microsomes stability, rat; details: for CLint / T1/2: 2 μM, 0.5 mg/mL, NADPH
Method: as §1, §2, §3, §4, §5, §6, §7, §8, §9, §10
as §1, with “solvate” for “solvate,”, “rat” for “rat,”
as §11, §12
(§13) Aliquots of 50 μL were taken from the reaction solution at 0, 15, 30, 45 and 60 minutes. The reaction solutions were stopped by the addition of 4 volumes of cold methanol with IS (100 nM alprazolam, 200 nM imipramine, 200 nM labetalol and 2 μM ketoprofen). […]

[3] = Liver microsomes stability, mouse; details: for T1/2: <4.51 if % remaining at 30 min below 1%
Method: as §1, §2, §3, §4, §5, §6, §7, §8, §9, §10
as §1, with “solvate” for “solvate,”, “rat” for “rat,”
as §11, §12, §13

[4] = Human liver microsomes, 2 μM, 0.5 mg/mL, NADPH
[5] = human liver microsomes, With Cofactors, 0 min
[6] = human liver microsomes, With Cofactors, 30 min
[7] = human liver microsomes, With Cofactors, 60 min
[8] = human liver microsomes, Without Cofactors, 0 min
[9] = human liver microsomes, Without Cofactors, 30 min
[10] = human liver microsomes, Without Cofactors, 60 min
[11] = Rat liver microsomes, With Cofactors, 0 min
[12] = Rat liver microsomes, With Cofactors, 30 min
[13] = Rat liver microsomes, With Cofactors, 60 min
[14] = Rat liver microsomes, Without Cofactors, 0 min
[15] = Rat liver microsomes, Without Cofactors, 30 min
[16] = Rat liver microsomes, Without Cofactors, 60 min
[17] = rat liver microsomes, With Cofactors, 0 min
[18] = rat liver microsomes, With Cofactors, 30 min
[19] = rat liver microsomes, With Cofactors, 60 min
[20] = rat liver microsomes, Without Cofactors, 0 min
[21] = rat liver microsomes, Without Cofactors, 30 min
[22] = rat liver microsomes, Without Cofactors, 60 min
[23] = Mouse liver microsomes, 2 μM, 0.5 mg/mL, NADPH
[24] = mouse liver microsomes, With Cofactors, 0 min
[25] = mouse liver microsomes, With Cofactors, 30 min
[26] = mouse liver microsomes, With Cofactors, 60 min
[27] = mouse liver microsomes, Without Cofactors, 0 min
[28] = mouse liver microsomes, Without Cofactors, 30 min
[29] = mouse liver microsomes, Without Cofactors, 60 min

For `COc1ccc2[nH]cc(CCN(C)C)c2c1` [5-MeO-DMT], the “Predicted hepatic CL” value ([1]; Human liver microsomes) was 18.09 mL/min/kg, the “Scaled-up CLint” value ([1]; Human liver microsomes) was 143.22 mL/min/kg and the CLint [1, 4] was 114.19 μL/min/mg protein. The T1/2 [1, 4] was 12.14 min, the “Remaining Percentage” value [1, 5] was 100.00% and the “Remaining Percentage (%) 0 min” value [1, 5] was 100.00%. For the same molecule, the “Remaining Percentage” value [1, 6] was 19.24%, the “Remaining Percentage (%) 30 min” value [1, 6] was 19.24% and the “Remaining Percentage” value [1, 7] was 3.25%. The “Remaining Percentage (%) 60 min” value [1, 7] was 3.25%, the “Remaining Percentage” value [1, 8] was 100.00% and the “Remaining Percentage (%) 0 min” value [1, 8] was 100.00%. The “Remaining Percentage” value [1, 9] was 18.58%, the “Remaining Percentage (%) 30 min” value [1, 9] was 18.58% and the “Remaining Percentage” value [1, 10] was 3.00%. For the same molecule, the “Remaining Percentage (%) 60 min” value [1, 10] was 3.00%, the “Predicted hepatic CL” value ([2]; Rat liver microsomes) was 49.02 mL/min/kg and the “Scaled-up CLint” value ([2]; Rat liver microsomes) was 437.56 mL/min/kg. For the same molecule, the CLint ([2]; Rat liver microsomes) was 244.17 μL/min/mg protein, the T1/2 ([2]; Rat liver microsomes) was 5.68 min and the “Remaining Percentage (%) 0 min” value [2, 11] was 100.00%. For the same molecule, the “Remaining Percentage (%) 30 min” value [2, 12] was 2.57%, the “Remaining Percentage (%) 60 min” value [2, 13] was 0.36% and the “Remaining Percentage (%) 0 min” value [2, 14] was 100.00%. For the same molecule, the “Remaining Percentage (%) 30 min” value [2, 15] was 49.55%, the “Remaining Percentage (%) 60 min” value [2, 16] was 23.82% and the “Remaining Percentage” value [2, 17] was 100.00%. The “Remaining Percentage” value [2, 18] was 2.57%, the “Remaining Percentage” value [2, 19] was 0.36% and the “Remaining Percentage” value [2, 20] was 100.00%. The “Remaining Percentage” value [2, 21] was 49.55%, the “Remaining Percentage” value [2, 22] was 23.82% and the “Predicted hepatic CL” value ([3]; Mouse liver microsomes) was 54.19 mL/min/kg. For the same molecule, the “Scaled-up CLint” value ([3]; Mouse liver microsomes) was 136.21 mL/min/kg, the T1/2 [3, 23] was 44.52 min and the CLint ([3]; Mouse liver microsomes, 2 μM, 0.5 mg/mL, NADPH, >307.01 if % remaining at 30 min below 1%) was 31.13 μL/min/mg protein. The “Remaining Percentage” value [3, 24] was 100.00%, the “Remaining Percentage (%) 0 min” value [3, 24] was 100.00% and the “Remaining Percentage” value [3, 25] was 61.84%. For the same molecule, the “Remaining Percentage (%) 30 min” value [3, 25] was 61.84%, the “Remaining Percentage” value [3, 26] was 39.30% and the “Remaining Percentage (%) 60 min” value [3, 26] was 39.30%. The “Remaining Percentage” value [3, 27] was 100.00%, the “Remaining Percentage (%) 0 min” value [3, 27] was 100.00% and the “Remaining Percentage” value [3, 28] was 104.76%. The “Remaining Percentage (%) 30 min” value [3, 28] was 104.76%, the “Remaining Percentage” value [3, 29] was 95.24% and the “Remaining Percentage (%) 60 min” value [3, 29] was 95.24%.

For `O=C(O)Cc1ccccc1Nc1c(Cl)cccc1Cl` [Diclofenac], the “Predicted hepatic CL” value ([1]; Human liver microsomes) was 18.35 mL/min/kg, the “Scaled-up CLint” value ([1]; Human liver microsomes) was 161.94 mL/min/kg and the “Predicted hepatic CL” value ([1]; human liver microsomes) was 18.38 mL/min/kg. The “Scaled-up CLint” value ([1]; human liver microsomes) was 164.18 mL/min/kg, the “Remaining Percentage” value [1, 5] was 100.00% and the “Remaining Percentage (%) 0 min” value [1, 5] was 100.00%. The “Remaining Percentage” value [1, 6] was 5.01%, the “Remaining Percentage (%) 30 min” value [1, 6] was 5.01% and the “Remaining Percentage” value [1, 7] was 1.77%. The “Remaining Percentage (%) 60 min” value [1, 7] was 1.77%, the “Remaining Percentage” value [1, 8] was 100.00% and the “Remaining Percentage (%) 0 min” value [1, 8] was 100.00%. The “Remaining Percentage” value [1, 9] was 112.67%, the “Remaining Percentage (%) 30 min” value [1, 9] was 112.67% and the “Remaining Percentage” value [1, 10] was 96.67%. The “Remaining Percentage (%) 60 min” value [1, 10] was 96.67%, the “Predicted hepatic CL” value ([2]; Rat liver microsomes) was 41.25 mL/min/kg and the “Scaled-up CLint” value ([2]; Rat liver microsomes) was 163.16 mL/min/kg. The CLint ([2]; Rat liver microsomes) was 91.05 μL/min/mg protein, the T1/2 ([2]; Rat liver microsomes) was 15.22 min and the “Remaining Percentage (%) 0 min” value [2, 11] was 100.00%. For the same molecule, the “Remaining Percentage (%) 30 min” value [2, 12] was 11.86%, the “Remaining Percentage (%) 60 min” value [2, 13] was 6.35% and the “Remaining Percentage (%) 0 min” value [2, 14] was 100.00%. The “Remaining Percentage (%) 30 min” value [2, 15] was 102.19%, the “Remaining Percentage (%) 60 min” value [2, 16] was 100.63% and the “Predicted hepatic CL” value ([2]; rat liver microsomes) was 41.22 mL/min/kg. The “Scaled-up CLint” value ([2]; rat liver microsomes) was 162.69 mL/min/kg, the “Remaining Percentage” value [2, 17] was 100.00% and the “Remaining Percentage” value [2, 18] was 11.86%. For the same molecule, the “Remaining Percentage” value [2, 19] was 6.35%, the “Remaining Percentage” value [2, 20] was 100.00% and the “Remaining Percentage” value [2, 21] was 102.19%. The “Remaining Percentage” value [2, 22] was 100.63%, the “Predicted hepatic CL” value ([3]; Mouse liver microsomes) was 54.78 mL/min/kg and the “Scaled-up CLint” value ([3]; Mouse liver microsomes) was 140.00 mL/min/kg. For the same molecule, the T1/2 [3, 23] was 43.31 min, the “Predicted hepatic CL” value ([3]; mouse liver microsomes) was 56.11 mL/min/kg and the “Scaled-up CLint” value ([3]; mouse liver microsomes) was 149.03 mL/min/kg. For the same molecule, the CLint ([3]; mouse liver microsomes, 2 μM compound, 0.5 mg/mL microsomes) was 34.06 μL/min/mg protein, the “Remaining Percentage” value [3, 24] was 100.00% and the “Remaining Percentage (%) 0 min” value [3, 24] was 100.00%. The “Remaining Percentage” value [3, 25] was 45.55%, the “Remaining Percentage (%) 30 min” value [3, 25] was 45.55% and the “Remaining Percentage” value [3, 26] was 33.71%. The “Remaining Percentage (%) 60 min” value [3, 26] was 33.71%, the “Remaining Percentage” value [3, 27] was 100.00% and the “Remaining Percentage (%) 0 min” value [3, 27] was 100.00%. For the same molecule, the “Remaining Percentage” value [3, 28] was 89.49%, the “Remaining Percentage (%) 30 min” value [3, 28] was 89.49% and the “Remaining Percentage” value [3, 29] was 96.59%. For the same molecule, the “Remaining Percentage (%) 60 min” value [3, 29] was 96.59%.
